Laboratory results: US8853174B2, “Agent for preventing or ameliorating skin aging” (Kao Corporation, priority 2008, dated 2014)

Tested on: Human skin fibroblasts
Assay: Measurement of contraction force generated by cells (fibroblast-embedded collagen gel culture system)
Format: cell-based
Conditions: for enhancement in the contraction force generated by fibroblasts (in words): 3 μM; for Mean value of contraction force generated by cells: Test Example 1, human skin fibroblasts in collagen gel, final concentration 3 μM

Compound	enhancement in the contraction force generated by fibroblasts (in words)	Mean value of contraction force generated by cells
C/C=C(/C)C(=O)O[C@H]1[C@H](OC(C)=O)[C@]2(CO)[C@H](O)C[C@]3(C)C(=CC[C@@H]4[C@@]5(C)CC[C@H](O[C@@H]6O[C@H](C(=O)O)[C@@H](O[C@@H]7O[C@H](CO)[C@@H](O)[C@H](O)[C@H]7O)[C@H](O)[C@H]6O[C@@H]6O[C@H](CO)[C@@H](O)[C@H](O)[C@H]6O)[C@](C)(CO)[C@@H]5CC[C@]43C)[C@@H]2CC1(C)C [Escin Ib]	no enhancement	0.0 dyne
C/C=C(\C)C(=O)O[C@H]1[C@H](OC(C)=O)[C@]2(CO)[C@H](O)C[C@]3(C)C(=CC[C@@H]4[C@@]5(C)CC[C@H](O[C@@H]6O[C@H](C(=O)O)[C@@H](O[C@@H]7O[C@H](CO)[C@@H](O)[C@H](O)[C@H]7O)[C@H](O)[C@H]6O[C@@H]6O[C@H](CO)[C@@H](O)[C@H](O)[C@H]6O)[C@](C)(CO)[C@@H]5CC[C@]43C)[C@@H]2CC1(C)C [Escin Ia]	no enhancement	0.0 dyne
